Test results reported in patent publication US11505521B2 (Biothea Pharma, Inc., priority 2018, dated 2022).
Where two headings read alike, the source gives them in different places.

Experimental: The stability of the pharmaceutical compositions of Example 3 were tested. The stability studies were conducted on packaged epinephrine salts at 25° C./RH 60% and 40° C./RH 75% conditions, as well as samples without packaging and exposed to light (4500 Lux) for one month. The appearance, assay content, and related substances were examined at 5, 7, 14 and 30 days.
The assay content was tested using Sartorius balances (Model SQP), an INESA pH meter (Model PHS-3E), a Thermo HPLC (UltiMate 3000 System, UV Wavelength: 205 nm), and Phenomenex Luna columns (5 μm C18 (2), 4.6×250 mm). The column temperature was 40° C., and the autosampler temperature was room temperature. The injection volume was 5 μL.
Mobile Phase A was prepared by weighing 4.0 g tetramethylammonium bisulfate (MERYER, Batch No. 77957139) and 1.1 sodium 1-heptasulfonate (Admas-beta, Batch No. P1343755), and transferring the materials to a flask. 2 mL of 0.1 mol/L EDTA solution (Brand: Sinopharm Chemical Reagent Co., Ltd., Batch No. 20150410) was added to the flask and the volume was adjusted to 950 mL using water. The solution was mixed and adjusted to a pH of 3.5 with 0.1N sodium hydroxide solution (Brand: Enox, Batch No. 20161201). Mobile Phase B was prepared using methanol. The isocratic elution was used in a proportion of A/B of 85/15. The run time was 10 minutes.
The assay content was analyzed by dissolving 20 mg of each sample to be examined in 50 mL of Mobile Phase A (0.4 mg/mL) as assay test solution. The sample was used and tested right after it was ready and was protected from light.
The purity was tested using Sartorius balances (Model SQP), an INESA pH meter (Model PHS-3E), a Thermo HPLC (UltiMate 3000 System, UV Wavelength: 205 nm), and PhenomenexSynergi columns (4 μm Polar-RP 80 A 250×4.6 mm). The column temperature was 30° C., and the autosampler temperature was room temperature. The injection volume was 5 μL.
Mobile Phase A was prepared by weighing 1.136 g of potassium dihydrogen orthophosphate (Brand: CNW, Batch No. A1040040) and 1.74 g of dipotassium hydrogen orthophosphate (Brand: Ourchem, Batch No. 20160219) and transferring into 1000 mL of water. The pH was adjusted to 3.0±0.05 with orthophosphoric acid (Brand: Ourchem, Batch No. 4112K060). The solution was filtered through a 0.45 μm membrane and degassed. Mobile Phase B was prepared using methanol. The run time was 50 minutes.
The purity was analyzed by dissolving 10 mg of each sample to be examined in 25 mL of Mobile Phase A (0.4 mg/mL) as purity and related substance test solution. The sample was used and tested right after it was ready and was protected from light.

[1] = light 4500 Lux, under air, 0 days
[2] = light 4500 Lux, under air, 5 days
[3] = light 4500 Lux, under air, 7 days
[4] = light 4500 Lux, under air, 14 days
[5] = light 4500 Lux, under air, 30 days

CNC[C@H](O)c1ccc(O)c(O)c1 [epinephrine bitartrate]
Appearance (25° C./60% RH, 0 days): Off-white
Content (%) (25° C./60% RH, 0 days): 100.00%
Related substance (%) (25° C./60% RH, 0 days): 0.08%
Appearance (25° C./60% RH, 5 days): Off-white
Content (%) (25° C./60% RH, 5 days): 100.05%
Related substance (%) (25° C./60% RH, 5 days): 0.08%
Appearance (25° C./60% RH, 7 days): Off-white
Content (%) (25° C./60% RH, 7 days): 100.83%
Related substance (%) (25° C./60% RH, 7 days): 0.08%
Appearance (25° C./60% RH, 14 days): Off-white
Content (%) (25° C./60% RH, 14 days): 99.82%
Related substance (%) (25° C./60% RH, 14 days): 0.09%
Appearance (25° C./60% RH, 30 days): Off-white
Content (%) (25° C./60% RH, 30 days): 100.33%
Related substance (%) (25° C./60% RH, 30 days): 0.09%
Appearance (40° C./75% RH, 0 days): Off-white
Content (%) (40° C./75% RH, 0 days): 100.00%
Related substance (%) (40° C./75% RH, 0 days): 0.08%
Appearance (40° C./75% RH, 5 days): Off-white
Content (%) (40° C./75% RH, 5 days): 100.43%
Related substance (%) (40° C./75% RH, 5 days): 0.09%
Appearance (40° C./75% RH, 7 days): Off-white
Content (%) (40° C./75% RH, 7 days): 100.84%
Related substance (%) (40° C./75% RH, 7 days): 0.09%
Appearance (40° C./75% RH, 14 days): Off-white
Content (%) (40° C./75% RH, 14 days): 100.17%
Related substance (%) (40° C./75% RH, 14 days): 0.09%
Appearance (40° C./75% RH, 30 days): Off-white
Content (%) (40° C./75% RH, 30 days): 100.96%
Related substance (%) (40° C./75% RH, 30 days): 0.10%
Appearance [1]: Off-white
Content (%) [1]: 100.00%
Related substance (%) [1]: 0.08%
Appearance [2]: Off-white
Content (%) [2]: 99.71%
Related substance (%) [2]: 0.10%
Appearance [3]: Off-white
Content (%) [3]: 102.34%
Related substance (%) [3]: 0.10%
Appearance [4]: Off-white
Content (%) [4]: 100.43%
Related substance (%) [4]: 0.09%
Appearance [5]: Off-white
Content (%) [5]: 100.39%
Related substance (%) [5]: 0.09%

epinephrine maleate
Appearance (25° C./60% RH, 0 days): Off-white
Content (%) (25° C./60% RH, 0 days): 100.00%
Related substance (%) (25° C./60% RH, 0 days): 0.17%
Appearance (25° C./60% RH, 5 days): Off-white
Content (%) (25° C./60% RH, 5 days): 99.50%
Related substance (%) (25° C./60% RH, 5 days): 0.18%
Appearance (25° C./60% RH, 7 days): Off-white
Content (%) (25° C./60% RH, 7 days): 99.97%
Related substance (%) (25° C./60% RH, 7 days): 0.17%
Appearance (25° C./60% RH, 14 days): Off-white
Content (%) (25° C./60% RH, 14 days): 99.43%
Related substance (%) (25° C./60% RH, 14 days): 0.16%
Appearance (25° C./60% RH, 30 days): Off-white
Content (%) (25° C./60% RH, 30 days): 100.69%
Related substance (%) (25° C./60% RH, 30 days): 0.17%
Appearance (40° C./75% RH, 0 days): Off-white
Content (%) (40° C./75% RH, 0 days): 100.00%
Related substance (%) (40° C./75% RH, 0 days): 0.17%
Appearance (40° C./75% RH, 5 days): Off-white
Content (%) (40° C./75% RH, 5 days): 99.30%
Related substance (%) (40° C./75% RH, 5 days): 0.17%
Appearance (40° C./75% RH, 7 days): Off-white
Content (%) (40° C./75% RH, 7 days): 97.76%
Related substance (%) (40° C./75% RH, 7 days): 0.18%
Appearance (40° C./75% RH, 14 days): Off-white
Content (%) (40° C./75% RH, 14 days): 99.24%
Related substance (%) (40° C./75% RH, 14 days): 0.16%
Appearance (40° C./75% RH, 30 days): Off-white
Content (%) (40° C./75% RH, 30 days): 100.19%
Related substance (%) (40° C./75% RH, 30 days): 0.16%
Appearance [1]: Off-white
Content (%) [1]: 100.00%
Related substance (%) [1]: 0.17%
Appearance [2]: Off-white
Content (%) [2]: 99.86%
Related substance (%) [2]: 0.18%
Appearance [3]: Off-white
Content (%) [3]: 100.61%
Related substance (%) [3]: 0.19%
Appearance [4]: Off-white
Content (%) [4]: 99.84%
Related substance (%) [4]: 0.16%
Appearance [5]: Off-white
Content (%) [5]: 100.47%
Related substance (%) [5]: 0.17%
